{
  "source": "paper PMC6271218",
  "about": "“Pharmacokinetics, Tissue Distribution and Excretion of Verticinone from F. hupehensis in Rats” (Molecules, 2014)",
  "key": {"[1]": {"assay": "Tissue distribution study after oral administration", "type": "in vivo, rats", "details": "for rank order of AUC values for individual tissues: i.g. 2 mg/kg", "protocol": "A single 2 mg/kg oral dose of verticinone was administrated to thirty rats (15 male and 15 female). Rats were sacrificed and tissues (heart, liver, spleen, lung, kidney, brain, stomach, intestine, skin, muscle, fat and gonads) were promptly removed at 0.25, 0.58 and 6 h (n = 10, with 5 male and 5 female) after dosing and washed with saline. Each tissue sample (0.2 g) was homogenized in 5 volumes (v/w) of distilled water. Tissue homogenates were stored at −20 °C until analysis. Verticinone was extracted from tissue homogenate based on the method described for plasma with slight modifications. The evaporated residue was reconstituted in 200 μL methanol, vortexed, followed by centrifugation at 15,000 rpm twice. An aliquot of 10 μL was injected into the LC-MS system for analysis.\n(§1) The quantification of verticinone was performed by a LC-MS method based on the previously reported method with slight modifications. The liquid chromatography system consisted of a model 2010 chromatograph (Shimadzu, Kyoto, Japan) equipped with a Shim-Pack VP-ODS C18 column (150 mm × 2.0 mm, 5 μm). A Shimadzu 2010 mass spectrometer (Q-array-Octapole-Quadrupole mass analyzer) equipped with an electrospray ionization interface was used for MS detection. The mobile phase consisted of (A) distilled water and (B) methanol, and the flow rate was 0.2 mL/min. Chromatography separation was achieved using a gradient elution program, as follows: 0.03→6.0 min, B% 15→85; 6.0→7.0 min, B% 85→85; 7.0→8.0 min, B% 85→15; 8.0–12.0 min, B% 15→15. The column and autosampler tray temperature were kept constant at 35 °C and 20 °C, respectively. For the determination of verticinone, the positive mode was selected, along with the conditions as follows.\nCDL voltage […], probe voltage 4.5 kV, CDL temperature 250 °C, block temperature 200 °C, gas flow 1.5 L/min. Hupehenine was used as the internal standard (IS). Both verticinone and IS were detected using selected ion monitoring (SIM) at m/z 430.25 for verticinone and m/z 416.30 for hupehenine (IS), with a dwell time of 200 ms. […]"}, "[2]": {"assay": "Excretion study (urine, bile, feces) after oral dose", "type": "in vivo, SD rats", "details": "for dose excreted: SD, rat, faeces, oral, read-out: recovery from feces; for dose excreted / cumulative excreted fraction in bile (% of administered dose) / cumulative excreted fraction in feces (% of administered dose) / unchanged verticinone excreted from urine and feces / cumulative excreted fraction in urine (% of administered dose): i.g. 2 mg/kg; for dose excreted as unchanged parent compound: 2 mg/kg oral dose; for cumulative excreted fraction in bile (% of administered dose): bile 24 h; for cumulative excreted fraction in feces (% of administered dose): feces 36 h; for cumulative excreted fraction in urine (% of administered dose): unchanged verticinone", "protocol": "Ten rats were housed separately in metabolic cages and received a single oral dose of 2 mg/kg verticinone. Urine was collected at 0, 4, 8, 12, and 24 h for female rats and at 0, 4, 8, 12, 24, 36 h for male rats. Feces were collected at 0, 12, 24, and 36 h for female rats and at 0, 8, 12, 24, 36 h for male rats. The volume of urine samples was measured before storage at −20 °C. Feces were weighted and homogenized in 5 volumes (v/w) of 50% methanol/50% water and stored at −20 °C until analysis. In addition, ten rats were anesthetized with ether and then the bile ducts were cannulated with polyethylene tube. The rats also received a single oral dose of 2 mg/kg verticinone. Bile was collected at 0, 2, 4, 6, 8, 12, and 24 h after dosing and stored at −20 °C until analysis. Verticinone was extracted from urine, feces and bile samples based on the method described for tissue samples.\nas §1\nCDL voltage […], probe voltage 4.5 kV, CDL temperature 250 °C, block temperature 200 °C, gas flow 1.5 L/min. Hupehenine was used as the internal standard (IS). Both verticinone and IS were detected using selected ion monitoring (SIM) at m/z 430.25 for verticinone and m/z 416.30 for hupehenine (IS), with a dwell time of 200 ms. Blank plasma, tissue homogenate, urine, feces homogenate and bile were used to prepare the corresponding calibration curves to avoid different matrix effects."}},
  "note": "Read-outs that look alike come from different tables or passages of the source.",
  "data": [
    {"compound": "C[C@H]1CC[C@@H]2N(C1)C[C@H]1[C@@H]3C[C@H]4[C@@H](CC(=O)[C@H]5C[C@@H](O)CC[C@@]54C)[C@@H]3CC[C@@H]1[C@]2(C)O", "note": "[verticinone, Verticinone]", "values": [
      {"measurement": "rank order of AUC values for individual tissues", "setting": "[1]; female rats", "value": "intestine > stomach > liver > kidney > spleen > lung > gonad > heart > muscle > skin > fat > brain"},
      {"measurement": "rank order of AUC values for individual tissues", "setting": "[1]; male rats", "value": "intestine > stomach > liver > kidney > spleen > lung > heart > gonad > muscle > skin > fat > brain"},
      {"measurement": "concentration found in the brain", "setting": "[1]; oral 2 mg/kg, rats, 15 min, 35 min and 6 h", "value": "very little was found in the brain"},
      {"measurement": "dose excreted", "setting": "[2]; female rats", "value": "< 1", "unit": "%"},
      {"measurement": "dose excreted", "setting": "[2]; male rats", "value": "< 1", "unit": "%"},
      {"measurement": "dose excreted as unchanged parent compound", "setting": "[2]; female rats", "value": "less than 1%"},
      {"measurement": "cumulative excreted fraction in bile (% of administered dose)", "setting": "[2]; female rats", "value": "0.02% ± 0.01"},
      {"measurement": "cumulative excreted fraction in feces (% of administered dose)", "setting": "[2]; female rats", "value": "0.42% ± 0.29"},
      {"measurement": "unchanged verticinone excreted from urine and feces", "setting": "[2]; female rats", "value": 0.6, "unit": "%"},
      {"measurement": "cumulative excreted fraction in urine (% of administered dose)", "setting": "[2]; female rats, urine 24 h", "value": "0.23% ± 0.05"},
      {"measurement": "dose excreted as unchanged parent compound", "setting": "[2]; male rats", "value": "less than 4%"},
      {"measurement": "cumulative excreted fraction in bile (% of administered dose)", "setting": "[2]; male rats", "value": "0.31% ± 0.21"},
      {"measurement": "cumulative excreted fraction in feces (% of administered dose)", "setting": "[2]; male rats", "value": "0.92% ± 0.53"},
      {"measurement": "unchanged verticinone excreted from urine and feces", "setting": "[2]; male rats", "value": "about 3.4%"},
      {"measurement": "cumulative excreted fraction in urine (% of administered dose)", "setting": "[2]; male rats, urine 36 h", "value": "2.50% ± 0.98"}
    ]}
  ]
}
